Patent publication US6337184B1, “Molecular marker for muscle stem cells” (priority 1997, dated 2002)
“Also recorded” adds a separate entry of the source.

Experiments:
Assay type in all cases: cell-based, mouse
[1] = tested on: C2C12 cells; experiment: Percentage of Bcl-2-expressing cells after apoptosis induction (immunostaining); settings: serum-free medium with staurosporine; increased from less than 20%
Method: Apoptosis was induced by transferring the cells to serum-free differentiation medium, with or without 0.5 μM staurosporine, and cell viability was measured by the MTT assay of mitochondrial function (Jacobsen et al., EMBO J. 13, 1899-1910 (1994)).
The hamster mAb, 3 F11, is specific for mouse Bcl-2 (Krajewski et al., Cancer Res. 53, 4701-4714 (1993)) and was used at 25 μg/ml.

[2] = tested on: C2C12 cells; experiment: MTT assay of mitochondrial function (cell viability) after apoptosis induction; settings: serum-free medium with 0.5 μM staurosporine, compared to growth medium or 2% HS; 1-2 days
Method: C2C12 and Sol8 cells were maintained in growth medium (DMEM with 15% fetal bovine serum, 2 mM L-glutamine, 10 mM HEPES, pH 7.4, and 100 U/ml penicillin) and induced to form myotubes in differentiation medium (growth medium with 2% horse serum in place of fetal bovine serum) (Yaffe et al., Nature 270, 725-727 (1977); Blau et al., Science 230, 758-766 (1985); and Montarras et al., New Biologist 3, 592-600 (1991)). […] Apoptosis was induced by transferring the cells to serum-free differentiation medium, with or without 0.5 μM staurosporine, and cell viability was measured by the MTT assay of mitochondrial function (Jacobsen et al., EMBO J. 13, 1899-1910 (1994)).
In this experiment, apoptosis was induced and Bcl-2 expression, cell viability, and differentiation capability were examined in cultures of myogenic cells.

[3] = tested on: C2C12 cells; experiment: G-418 selection of untransfected and neo-transfected C2C12 cells; settings: 500 μg/ml G-418, 11 days
Method: The Bcl-2 promoter-neo vector was prepared by using HindIII and MluI to excise the RSV promoter of pRSVneo (Gorman et al., Science 221:551-553 (1983)), after which an ˜2.6 kb PstI fragment of the human Bcl-2 promoter region (plasmid LB124; Chen et al., Mol. Cell. Biol. 15, 3840-3847 (1995)) was blunt-end ligated to the promotorless neo plasmid. C2C12 cells were transfected with Bcl-2-neo or pSV2neo using LIPOFECTAMINE™ (3:1 (w/w) 2,3-dioleyloxy-N-[2(spermine-carboxamido)ethyl]-N,N-dimethyl-1-propanaminiumtrifluoroacetate and dioleoyl phosphatidylethanolamine) (Gibco-BRL) and selected with G-418 (Dominov et al., Dev. Genet. 19, 108-118 (1996)).
To determine whether Bcl-2-expressing cells could function as stem cells, the differentiation of modified C2C12 cells that were selected based on their ability to express a Bcl-2 promoter fragment was examined. C2C12 cells were transfected with a plasmid in which expression of neomycin phosphotransferase was under the control of an ˜2.6 kb fragment of the human Bcl-2 promoter (Chen and Boxer, Mol. Cell. Biol. 15, 3840-3847 (1995)). From these transfections, four independent G-418-resistant lines (termed Bcl-2-neo cells) were isolated. […] In contrast, this treatment killed all untransfected C2C12 control cells and had no effect on C2C12 cells transfected with the ubiquitously expressed pSV2neo (FIG. 4). When transferred to fresh growth medium without G-418, the selected Bcl-2-neo cells resumed proliferation (FIG. 4) and were able to form multinucleate myotubes when switched to differentiation medium at confluence (not shown).

| SMILES | percentage of muscle stem cells in the population [1] | number of viable C2C12 cells [2] | effect on C2C12 cells carrying neo under SV40 promoter (pSV2neo) [3] | survival of C2C12 cells carrying Bcl-2 promoter-neo fusion gene (Bcl-2-neo) [3] | survival of untransfected C2C12 cells (control) [3] |
| --- | --- | --- | --- | --- | --- |
| CN[C@@H]1C[C@H]2O[C@@](C)([C@@H]1OC)n1c3ccccc3c3c4c(c5c6ccccc6n2c5c31)C(=O)NC4 [staurosporine] | 50-80% | greatly reduced; also recorded: decreased | – | – | – |
| CN[C@@H]1[C@@H](O)[C@@H](O[C@@H]2[C@@H](O)[C@H](O[C@H]3O[C@H]([C@@H](C)O)[C@@H](O)[C@H](O)[C@H]3N)[C@@H](N)C[C@H]2N)OC[C@]1(C)O [G-418] | – | – | no effect | a portion of C2C12 cells that carry a Bcl-2 promoter-neo fusion gene (Bcl-2-neo) survived; also recorded: a portion of the cells remained viable | killed all |
